{
  "source": "patent US11865103B2",
  "about": "“Methods of treating disorders associated with glycosylation defective proteins” (CASE WESTERN RESERVE UNIVERSITY, priority 2016, dated 2024)",
  "test_system": "hCLRN1^N48K-YFP; clrn1^KO/KO larvae",
  "assay": "Startle response and swimming/balance behavior of ART treated hCLRN1^N48K-YFP; clrn1^KO/KO larvae",
  "type": "in vivo, zebrafish",
  "procedure": "The startle response and swimming behavior of the clrn1^+/+ larvae, clrn1^KO/KO larvae, hCLRN1-YFP; clrn1^KO/KO larvae and hCLRN1^N48K-YFP; clrn1^KO/KO larvae were recorded at 6.5dpf, 10.5dpf, 16.5dpf and 27dpf as described earlier (Table-1). The extracellular microphonics potentials were recorded at 6dpf to confirm the hair cell function in these humanized zebrafish models for hCLRN1 (hCLRN1-YFP; clrn1^KO/KO larvae larvae) and USH3-CLRN1^N48Kmutant (hCLRN1^N48K-YFP; clrn1^KO/KO larvae) as described earlier (FIG. 5).\nAt 6.5 dpf, clrn1^+/+ larvae often tend to swim towards the middle or closer to surface of the water (E3 medium) in the Petri dish, and escape swiftly from the field of view when startled (by tapping the Petri dish with a metal probe). At 6.5 dpf, hCLRN1^N48K-YFP; clrn1^KO/KO larvae (n=40) were hard to distinguish from clrn1^+/+ larvae in a Petri dish when viewed from the top. […] To monitor hair cell function in the hCLRN1^N48K-YFP; clrn1^KO/KO zebrafish, larvae from several clutch were observed longitudinally from 6.5 to 27 dpf for survival, swimming behavior and startle response (Table 1). […] However, 5% of the hCLRN1^N48K-YFP; clrn1^KO/KO zebrafish do survive long enough to be able to breed like its clrn1^+/+ counterpart. […] In this model, hair cells expressing hCLRN1^N48K retained hair bundle structure and function for a longer duration than clrn1^KO/KO hair cells, consistent with previous report ‘USH3-CLRN1Y176X individuals develop severe hearing loss earlier in life compared with CLRN1^N48K individuals’. This new model for inner ear disorder associated with hCLRN1^N48K mutation will be useful to identify therapeutic agents to prevent progressive loss of hair cell function in USH3-CLRN1^N48K mutant individuals.\nTo verify the degree of overall rescue in swimming behavior (hair cell function) and prolongation of life span by ART treatment in the hCLRN1^N48K-YFP; clrn1^KO/KO zebrafish larvae, survival rate, swimming behavior and startle response were observed longitudinally from 6.5 to 27 dpf (Table 1). For this rescue experiment, we followed two regimens of ART treatment. Regimen I, 35 larvae from hCLRN1^N48K-YFP; clrn1^KO/KO genotype were treated with 0.4 uM ART from 3 to 7 dpf (5 days of treatment during inner ear development and hair cell maturation). Regimen II, 20 larvae from hCLRN1^N48K-YFP; clrn1^KO/KO genotype were treated with 0.4 uM ART from 3 to 12 dpf (10 days of treatment overlapping development and post-development of inner ear anatomy and hair cell maturation). At 6.5 dpf, the swimming behavior and startle response of hCLRN1^N48K-YFP; clrn1^KO/KO larvae from ART treatment regimen I and II, were indistinguishable from that of clrn1^+/+ and hCLRN1-YFP; clrn1^KO/KO larvae. About 75% (Regimen I+II: 41 larvae) of ART treated hCLRN1^N48K-YFP; clrn1^KO/KO larvae had clrn1^+/+ equivalent startle response. In regimen I and II, the survival rate and swimming behavior of hCLRN1^N48K-YFP; clrn1^KO/KO larvae beyond 25 dpf shown significant improvement from 5% in untreated hCLRN1^N48K-YFP; clrn1^KO/KO larvae to 40% (n=14) and 45% (n=[…]), respectively. […] Overall, result confirms that ART is not only able to correct the trafficking defect of hCLRN1^N48K protein, but also able to help in normal hair cell functioning of hair cells from hCLRN1^N48K-YFP; clrn1^KO/KO zebrafish and delay onset progressive loss of hair cell function.",
  "key": {"[1]": {"conditions": "Regimen I: 0.4 μM ART from 3 to 7 dpf"}},
  "data": [
    {"compound": "C[C@@H]1CC[C@H]2[C@@H](C)C(=O)O[C@@H]3O[C@@]4(C)CC[C@@H]1[C@]32OO4", "note": "[ART, Artemisinin]", "values": [
      {"measurement": "Swimming behavior and startle response compared with clrn1^+/+ and hCLRN1-YFP; clrn1^KO/KO larvae", "setting": "ART treatment regimen I and II, 6.5 dpf", "result": "indistinguishable"},
      {"measurement": "Larvae with clrn1^+/+ equivalent startle response", "setting": "Regimen I+II, 0.4 uM ART, 6.5 dpf", "result": "About 75%"},
      {"measurement": "% of abnormal swimming-balance (6.5 dpf)", "setting": "[1]", "result": 25.71, "unit": "%"},
      {"measurement": "% of normal swimming-balance (>25 dpf)", "setting": "[1]", "result": 40, "unit": "%"},
      {"measurement": "% showing startle response at 6.5 dpf", "setting": "[1]", "result": 100, "unit": "%"},
      {"measurement": "% of normal swimming-balance (>25 dpf)", "setting": "Regimen II: 0.4 μM ART from 3 to 12 dpf", "result": 45, "unit": "%"}
    ]}
  ]
}
